Assay results published in patent publication US10590113B2, “6-hydroxy-4-oxo-1,4-dihydropyrimidine-5-carboxamides as APJ agonists” (priority 2016, dated 2020).
pEC50: −log10 of the molar value.

molecular target: T1, human APJ receptor (Homo sapiens, UniProt P35414); assay: Intracellular cAMP Accumulation Assay (APJ hcAMP, HTRF); assay type: cell-based; conditions: not given
T1 construct: expressed in transfected cells; host or cells: HEK293
T1 sequence (P35414 1-380): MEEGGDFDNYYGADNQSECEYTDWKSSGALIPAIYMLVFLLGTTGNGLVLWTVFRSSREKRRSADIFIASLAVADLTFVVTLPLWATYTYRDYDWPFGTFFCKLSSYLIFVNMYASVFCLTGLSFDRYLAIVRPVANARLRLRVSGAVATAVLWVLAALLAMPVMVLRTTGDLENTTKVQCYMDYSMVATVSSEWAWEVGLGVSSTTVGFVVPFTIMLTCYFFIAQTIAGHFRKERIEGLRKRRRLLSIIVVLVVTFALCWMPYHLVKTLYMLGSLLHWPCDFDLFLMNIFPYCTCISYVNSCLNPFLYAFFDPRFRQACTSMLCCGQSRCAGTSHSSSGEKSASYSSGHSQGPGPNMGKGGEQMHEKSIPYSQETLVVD
Outline: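 Stably transfected HEK293 cells (5,000/well) incubated 30 min at room temperature with serially diluted compound, […] and 2 μM forskolin. cAMP measured by HTRF after 60 min with detection reagents, quantified against a cAMP standard curve; EC50 from variable-slope sigmoidal fit of inhibition of forskolin-stimulated cAMP.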

Structure (SMILES) | pEC50
CCCCc1nc(=O)c(C(=O)N2CCC(c3ccc(Cl)cn3)C2)c(O)n1-c1c(OC)cccc1OC (single isomer, unassigned) [Example 41, 2-butyl-5-(3-(5-chloropyridin-2-yl)pyrrolidine-1-carbonyl)-1-(2,6-dimethoxyphenyl)-6-hydroxypyrimidin-4(1H)-one] | 8.00 to 11.00

same assay, conditions: human APJ, cAMP accumulation; potency range class; read-out: hAPJ cAMP EC50 Potency range

Structure (SMILES) | pEC50
COc1cccc(OC)c1-n1c(CC2CC2)nc(=O)c(C(=O)N2CCC(c3ccncc3)C2)c1O (single isomer, unassigned) [Example 230, 2-(cyclopropylmethyl)-1-(2,6-dimethoxyphenyl)-6-hydroxy-5-[3-(pyridin-4-yl)pyrrolidine-1-carbonyl]-1,4-dihydropyrimidin-4-one] | 7.00 to 8.00
COc1cccc(OC)c1-n1c(CC2CC2)nc(=O)c(C(=O)N2CCC(c3ccccc3F)C2)c1O (single isomer, unassigned) [Example 226, 2-(cyclopropylmethyl)-1-(2,6-dimethoxyphenyl)-5-[3-(2-fluorophenyl)pyrrolidine-1-carbonyl]-6-hydroxy-1,4-dihydropyrimidin-4-one] | 8.00 to 11.00
COc1cccc(OC)c1-n1c(-c2cncc(Cl)c2)nc(=O)c(C(=O)N2CCC(c3ccc(F)cc3F)C2)c1O (single isomer, unassigned) [Example 260, 2-(5-chloropyridin-3-yl)-5-[3-(2,4-difluorophenyl)pyrrolidine-1-carbonyl]-1-(2,6-dimethoxyphenyl)-6-hydroxy-1,4-dihydropyrimidin-4-one] | 8.00 to 11.00

Now from value to molecule:

pEC50 | Structure (SMILES)
8.00 to 11.00 | CC[C@@H](c1ccccc1)n1c(-c2nc(C)cs2)nc(=O)c(C(=O)N2CCC(c3ccc(F)cn3)C2)c1O (single isomer, unassigned) [Example 322]
8.00 to 11.00 | COc1cccc(OC)c1-n1c(-c2cc(C)ccn2)nc(=O)c(C(=O)N2CCC(c3ccc(F)cc3F)C2)c1O (single isomer, unassigned) [Example 262, 5-[3-(2,4-difluorophenyl)pyrrolidine-1-carbonyl]-1-(2,6-dimethoxyphenyl)-6-hydroxy-2-(4-methylpyridin-2-yl)-1,4-dihydropyrimidin-4-one]
8.00 to 11.00 | CCn1ccc(-c2nc(=O)c(C(=O)N3CCC(c4ccccc4F)C3)c(O)n2-c2cccc(C(C)C)c2)n1 (single isomer, unassigned) [Example 294, 2-(1-ethyl-1H-pyrazol-3-yl)-5-[3-(2-fluorophenyl)pyrrolidine-1-carbonyl]-6-hydroxy-1-[3-(propan-2-yl)phenyl]-1,4-dihydropyrimidin-4-one]
8.00 to 11.00 | CCCCc1nc(=O)c(C(=O)N2CCC(c3ncc(Cl)cc3F)C2)c(O)n1[C@@H](COC)c1ccccc1 (stereo partly drawn) [Example 350, 2-butyl-5-[3-(5-chloro-3-fluoropyridin-2-yl)pyrrolidine-1-carbonyl]-6-hydroxy-3-[(1R)-2-methoxy-1-phenylethyl]-3,4-dihydropyrimidin-4-one]
8.00 to 11.00 | CCn1ccc(-c2nc(=O)c(C(=O)N3CC[C@@H](c4ccccc4)C3)c(O)n2-c2c(OC)cccc2OC)n1 [Example 286, 1-(2,6-dimethoxyphenyl)-2-(1-ethyl-1H-pyrazol-3-yl)-6-hydroxy-5-[(3S)-3-phenylpyrrolidine-1-carbonyl]-1,4-dihydropyrimidin-4-one]
8.00 to 11.00 | CCn1ccc(-c2nc(=O)c(C(=O)N3CCC(c4ncc(Cl)cc4F)C3)c(O)n2[C@H](c2cc(F)cc(F)c2)C(C)C)n1 (single isomer, unassigned) [Example 326]

same assay, conditions: human APJ, intracellular cAMP accumulation; read-out: hAPJ cAMP EC50 Potency range

pEC50 | Structure (SMILES)
7.00 to 8.00 | CCCCc1nc(=O)c(C(=O)N2CC[C@H](c3ccccc3)C2)c(O)n1[C@H](C)C1CC1 [Example 142, 2-butyl-3-[(1R)-1-cyc1opropylethyl]-6-hydroxy-5-[(3R)-3-phenylpyrrolidine-1-carbonyl]-3,4-dihydropyrimidin-4-one]
8.00 to 11.00 | CCCCc1nc(O)c(C(=O)N2CCC(c3ccc(F)cc3)C2)c(=O)n1-c1c(CC)cccc1CC (racemic) [Example 89, 2-butyl-3-(2,6-diethylphenyl)-5-[3-(4-fluorophenyl)pyrrolidine-1-carbonyl]-6-hydroxy-3,4-dihydropyrimidin-4-one]
7.00 to 8.00 | CCCCc1nc(=O)c(C(=O)N2CC[C@@H](c3ccccc3)C2)c(O)n1[C@H](COC)c1ccccc1 [Example 154, 2-butyl-6-hydroxy-3-[(1S)-2-methoxy-1-phenylethyl]-5-[(3S)-3-phenylpyrrolidine-1-carbonyl]-3,4-dihydropyrimidin-4-one]
7.00 to 8.00 | CCCCc1nc(=O)c(C(=O)N2CC[C@@H](c3ccccc3)C2)c(O)n1[C@@H](C)c1ccc(F)cc1 [Example 143, 2-butyl-3-[(1S)-1-(4-fluorophenyl)ethyl]-6-hydroxy-5-[(3S)-3-phenylpyrrolidine-1-carbonyl]-3,4-dihydropyrimidin-4-one]
8.00 to 11.00 | CCCCc1nc(=O)c(C(=O)N2CC[C@@H](c3ccccc3)C2)c(O)n1-c1c(OC)ncnc1OC [Example 112, 2-butyl-3-(4,6-dimethoxypyrimidin-5-yl)-6-hydroxy-5-[(3S)-3-phenylpyrrolidine-1-carbonyl]-3,4-dihydropyrimidin-4-one]
8.00 to 11.00 | CC[C@@H](c1cc(F)cc(F)c1)n1c(-c2nc(C)cs2)nc(=O)c(C(=O)N2CCC(c3ccc(F)cn3)C2)c1O (single isomer, unassigned) [Example 206]
7.00 to 8.00 | CCCCc1nc(=O)c(C(=O)N2CC[C@H](c3ccccc3)C2)c(O)n1C(c1ccccc1)C(C)C (stereo partly drawn) [Example 130, 2-butyl-6-hydroxy-3-(2-methyl-1-phenylpropyl)-5-[(3R)-3-phenylpyrrolidine-1-carbonyl]-3,4-dihydropyrimidin-4-one]
7.00 to 8.00 | COc1cccc(OC)c1-n1c(COC(C)C)nc(=O)c(C(=O)N2CC(c3ccc(C)cc3)C2)c1O [Example 111, 1-(2,6-dimethoxyphenyl)-6-hydroxy-5-[3-(4-methylphenyl)azetidine-1-carbonyl]-2-[(propan-2-yloxy)methyl]-1,4-dihydropyrimidin-4-one]
7.00 to 8.00 | CCCCc1nc(=O)c(C(=O)N2CC[C@@H](c3ccccc3)C2)c(O)n1[C@@H](C)c1cccc(C#N)c1 [Example 149, 3-[(1S)-1-{2-butyl-4-hydroxy-6-oxo-5-[(3S)-3-phenylpyrrolidine-1-carbonyl]-1,6-dihydropyrimidin-1-yl}ethyl]benzonitrile]
7.00 to 8.00 | CCCCc1nc(=O)c(C(=O)N2CC[C@@H](c3ccccc3)C2)c(O)n1[C@@H](C)c1ccccc1OC [Example 151, 2-butyl-6-hydroxy-3-[(1S)-1-(2-methoxypheny)ethyl]-5-[(3S)-3-phenylpyrrolidine-1-carbonyl]-3,4-dihydropyrimidin-4-one]

same assay, conditions: read-out: hAPJ cAMP EC50 Potency range

pEC50 | Structure (SMILES)
8.00 to 11.00 | CCCCc1nc(=O)c(C(=O)N2CCC(Oc3cc(F)cc(F)c3Cl)CC2)c(O)n1-c1c(OC)cccc1OC [Example 386, 2-butyl-5-(4-(2-chloro-3,5-difluorophenoxy)piperidine-1-carbonyl)-1-(2,6-dimethoxyphenyl)-6-hydroxypyrimidin-4(1H)-one]
8.00 to 11.00 | CCOCc1nc(=O)c(C(=O)N2CCC(Cc3ccc(F)cc3)CC2)c(O)n1-c1c(OC)cccc1OC [Example 374, 1-(2,6-dimethoxyphenyl)-2-(ethoxymethyl)-5-(4-(4-fluorobenzyl)piperidine-1-carbonyl)-6-hydroxypyrimidin-4(1H)-one]
